Test results published in US20240109917A1 (ACTELION PHARMACEUTICALS LTD, priority 2020, published 2024).
pIC50: −log10 of the molar value.

Key:
[1] = target: His6-TEV-PDGFRβ (557-1016) (Homo sapiens (Human), UniProt P09619); experiment: PDGFRβ HTRF Assay; assay type: biochemical; settings: read-out: PDGFR HTRF IC50
How it was run: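 Human PDGFRβ (557-1016) pre-incubated with compound for 30 min at RT in pH 7.5 HEPES/MgCl2/EGTA/Brij-35/DTT buffer. Reaction started with ATP and TK-biotin peptide, run 3 h at RT, then quenched with EDTA-containing Eu-cryptate antibody/streptavidin-XL665. HTRF 665/620 nm ratio read after 60 min; percent inhibition relative to DMSO and 10 μM imatinib controls.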

[2] = target: Tb-labeled inactive PDGFRβ (Homo sapiens (Human), UniProt P09619); experiment: PDGFRβ LanthaScreen Assay; assay type: binding; settings: read-out: PDGFR Lantha IC50
Tb-labeled inactive PDGFRβ, sequence (P09619 33-1106): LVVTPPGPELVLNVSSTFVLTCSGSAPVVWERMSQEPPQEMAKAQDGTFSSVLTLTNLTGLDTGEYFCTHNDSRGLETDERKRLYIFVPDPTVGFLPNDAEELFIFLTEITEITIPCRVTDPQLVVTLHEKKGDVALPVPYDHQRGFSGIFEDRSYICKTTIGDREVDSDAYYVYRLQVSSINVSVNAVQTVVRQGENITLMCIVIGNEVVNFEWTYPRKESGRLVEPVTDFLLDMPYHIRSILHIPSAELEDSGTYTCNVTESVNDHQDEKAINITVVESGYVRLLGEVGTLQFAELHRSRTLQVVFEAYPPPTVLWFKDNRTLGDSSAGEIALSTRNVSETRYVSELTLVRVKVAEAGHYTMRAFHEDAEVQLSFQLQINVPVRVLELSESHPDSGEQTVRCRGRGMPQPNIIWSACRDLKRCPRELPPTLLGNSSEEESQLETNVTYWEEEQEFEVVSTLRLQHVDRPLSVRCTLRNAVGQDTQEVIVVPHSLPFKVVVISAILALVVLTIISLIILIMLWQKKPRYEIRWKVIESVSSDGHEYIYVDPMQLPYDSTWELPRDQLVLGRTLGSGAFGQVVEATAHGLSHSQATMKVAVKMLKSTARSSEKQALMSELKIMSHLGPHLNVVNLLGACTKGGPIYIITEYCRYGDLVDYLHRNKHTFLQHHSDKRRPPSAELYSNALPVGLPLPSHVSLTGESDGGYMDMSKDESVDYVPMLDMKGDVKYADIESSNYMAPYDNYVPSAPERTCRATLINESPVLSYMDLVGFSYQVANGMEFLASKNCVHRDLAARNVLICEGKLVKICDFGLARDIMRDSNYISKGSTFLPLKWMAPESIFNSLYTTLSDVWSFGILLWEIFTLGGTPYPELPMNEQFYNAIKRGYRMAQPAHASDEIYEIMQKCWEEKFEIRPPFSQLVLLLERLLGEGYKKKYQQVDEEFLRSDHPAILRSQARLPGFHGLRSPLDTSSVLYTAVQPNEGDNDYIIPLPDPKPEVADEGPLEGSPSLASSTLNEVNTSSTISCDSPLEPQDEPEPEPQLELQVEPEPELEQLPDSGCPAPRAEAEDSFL

His6-TEV-PDGFRβ (557-1016), sequence (P09619 557-1016): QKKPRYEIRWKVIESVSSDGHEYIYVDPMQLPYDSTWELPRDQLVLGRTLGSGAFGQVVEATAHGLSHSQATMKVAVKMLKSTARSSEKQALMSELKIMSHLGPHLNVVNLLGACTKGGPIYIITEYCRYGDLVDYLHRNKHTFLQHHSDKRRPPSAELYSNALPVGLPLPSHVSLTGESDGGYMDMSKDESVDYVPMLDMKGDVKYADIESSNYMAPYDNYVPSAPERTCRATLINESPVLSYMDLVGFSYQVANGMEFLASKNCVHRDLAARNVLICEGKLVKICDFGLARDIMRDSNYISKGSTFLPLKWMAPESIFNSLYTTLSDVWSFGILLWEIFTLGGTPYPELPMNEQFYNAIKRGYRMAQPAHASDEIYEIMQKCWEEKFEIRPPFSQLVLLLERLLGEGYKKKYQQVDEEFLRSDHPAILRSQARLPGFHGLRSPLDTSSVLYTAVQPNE

`Cc1ncc(NC(=O)CN2C[C@H](C)O[C@@H](C)C2)cc1NC(=O)c1cnn2cc(-c3c(C)n[nH]c3C)sc12` (relative stereo) [Example 373, 2-(3,5-dimethyl-1H-pyrazol-4-yl)-N-(5-(2-(trans-2,6-dimethylmorpholino)acetamido)-2-methylpyridin-3-yl)pyrazolo[5,1-b]thiazole-7-carboxamide] showed a pIC50 [1] of 8.89 and a pIC50 [2] of 8.15.
For `COCCn1cc(-c2cn3ncc(C(=O)Nc4cc(NC(=O)CN5C[C@H]6CC[C@@H]5C6)cnc4C)c3s2)cn1` [Example 334, N-(5-(2-((1R,4S)-2-azabicyclo[2.2.1]heptan-2-yl)acetamido)-2-methylpyridin-3-yl)-2-(1-(2-methoxyethyl)-1H-pyrazol-4-yl)pyrazolo[5,1-b]thiazole-7-carboxamide], the pIC50 [1] was 9.30 and the pIC50 [2] was 8.04.
`COCC1CN(CC(=O)Nc2cnc(C)c(NC(=O)c3cnn4cc(-c5cnn(C)c5)sc34)c2)CC(C)(C)O1` (stereo not drawn) [Example 383, N-(5-(2-(6-(methoxymethyl)-2,2-dimethylmorpholino)acetamido)-2-methylpyridin-3-yl)-2-(1-methyl-1H-pyrazol-4-yl)pyrazolo[5,1-b]thiazole-7-carboxamide] showed a pIC50 [1] of 9.00 and a pIC50 [2] of 8.11.
`Cc1ncc(S(=O)(=O)NCCN2CCCC2(C)C)cc1NC(=O)c1cnn2cc(-c3cnn(C)c3)sc12` [Example 359, N-(5-(N-(2-(2,2-dimethylpyrrolidin-1-yl)ethyl)sulfamoyl)-2-methylpyridin-3-yl)-2-(1-methyl-1H-pyrazol-4-yl)pyrazolo[5,1-b]thiazole-7-carboxamide] was tested, and the pIC50 [1] was 7.79 and the pIC50 [2] was 6.35.
`COc1ncccc1-c1cn2ncc(C(=O)Nc3cc(NC(=O)CN4C[C@H](C)O[C@@H](C)C4)cnc3C)c2s1` (relative stereo) [Example 384, N-(5-(2-(trans-2,6-dimethylmorpholino)acetamido)-2-methylpyridin-3-yl)-2-(2-methoxypyridin-3-yl)pyrazolo[5,1-b]thiazole-7-carboxamide] gave a pIC50 [1] of 9.40 and a pIC50 [2] of 8.64.
Molecule `Cc1ncc(NC(=O)CN2CC3(CCOCC3)C2)cc1NC(=O)c1cnn2cc(-c3cnn4c3OCCC4)sc12` [Example 406, N-(5-(2-(7-oxa-2-azaspiro[3.5]nonan-2-yl)acetamido)-2-methylpyridin-3-yl)-2-(6,7-dihydro-5H-pyrazolo[5,1-b][1,3]oxazin-3-yl)pyrazolo[5,1-b]thiazole-7-carboxamide] has a pIC50 [1] of 9.40 and a pIC50 [2] of 8.64.
`COC/C=C/c1cn2ncc(C(=O)Nc3cc(NC(=O)CN4C[C@H](C)O[C@@H](C)C4)cnc3C)c2s1` (relative stereo) [Example 367, N-(5-(2-(trans-2,6-dimethylmorpholino)acetamido)-2-methylpyridin-3-yl)-2-((E)-3-methoxyprop-1-en-1-yl)pyrazolo[5,1-b]thiazole-7-carboxamide] gave a pIC50 [1] of 8.74 and a pIC50 [2] of 7.76.
Molecule `COc1ncccc1-c1cn2ncc(C(=O)Nc3cc(NC(=O)CN4C[C@@H](CO)OC(C)(C)C4)cnc3C)c2s1` [Example 380, (S)—N-(5-(2-(6-(hydroxymethyl)-2,2-dimethylmorpholino)acetamido)-2-methylpyridin-3-yl)-2-(2-methoxypyridin-3-yl)pyrazolo[5,1-b]thiazole-7-carboxamide] has a pIC50 [1] of 9.40 and a pIC50 [2] of 8.52.
With `COCCn1cc(-c2cn3ncc(C(=O)Nc4cc(NC(=O)CN5CCC(C)(C)C5)cnc4C)c3s2)cn1` [Example 336, N-(5-(2-(3,3-dimethylpyrrolidin-1-yl)acetamido)-2-methylpyridin-3-yl)-2-(1-(2-methoxyethyl)-1H-pyrazol-4-yl)pyrazolo[5,1-b]thiazole-7-carboxamide] the pIC50 [1] was 9.40 and the pIC50 [2] was 8.48.
`COc1ncccc1-c1cn2ncc(C(=O)Nc3cc(NC(=O)CN4C[C@H](C)O[C@@H](C)C4)cnc3C)c2s1` (relative stereo) [Example 368, N-(5-(2-(trans-2,6-dimethylmorpholino)acetamido)-2-methylpyridin-3-yl)-2-(2-methoxypyridin-3-yl)pyrazolo[5,1-b]thiazole-7-carboxamide] gave a pIC50 [1] of 9.52 and a pIC50 [2] of 8.62.
`COc1cccc(-c2cn3ncc(C(=O)Nc4cc(NC(=O)CN5C[C@H](C)O[C@@H](C)C5)cnc4C)c3s2)n1` (relative stereo) [Example 386, N-(5-(2-(trans-2,6-dimethylmorpholino)acetamido)-2-methylpyridin-3-yl)-2-(6-methoxypyridin-2-yl)pyrazolo[5,1-b]thiazole-7-carboxamide] showed a pIC50 [1] of 9.40 and a pIC50 [2] of 8.60.
`Cc1ncc(NC(=O)CN2C[C@@H](CO)OC(C)(C)C2)cc1NC(=O)c1cnn2cc(-c3cnn(C)c3)sc12` [Example 377, (S)—N-(5-(2-(6-(hydroxymethyl)-2,2-dimethylmorpholino)acetamido)-2-methylpyridin-3-yl)-2-(1-methyl-1H-pyrazol-4-yl)pyrazolo[5,1-b]thiazole-7-carboxamide] gave a pIC50 [1] of 9.10 and a pIC50 [2] of 8.21.
`COc1ncccc1-c1cn2ncc(C(=O)Nc3cc(NC(=O)CN4C[C@H](CO)OC(C)(C)C4)cnc3C)c2s1` [Example 379, (R)—N-(5-(2-(6-(hydroxymethyl)-2,2-dimethylmorpholino)acetamido)-2-methylpyridin-3-yl)-2-(2-methoxypyridin-3-yl)pyrazolo[5,1-b]thiazole-7-carboxamide] gave a pIC50 [1] of 9.40 and a pIC50 [2] of 8.57.
Molecule `COCCn1cc(-c2cn3ncc(C(=O)Nc4cc(NC(=O)[C@@H]5CCCN5C(C)C)cnc4C)c3s2)cn1` [Example 343, (S)—N-(5-(1-isopropylpyrrolidine-2-carboxamido)-2-methylpyridin-3-yl)-2-(1-(2-methoxyethyl)-1H-pyrazol-4-yl)pyrazolo[5,1-b]thiazole-7-carboxamide] has a pIC50 [1] of 8.46 and a pIC50 [2] of 7.07.
Work on `Cc1ncc(NC(=O)[C@@H]2CCCN2C)cc1NC(=O)c1cnn2cc(-c3cnn4c3OCCC4)sc12` [Example 349, (S)-2-(6,7-dihydro-5H-pyrazolo[5,1-b][1,3]oxazin-3-yl)-N-(2-methyl-5-(1-methylpyrrolidine-2-carboxamido)pyridin-3-yl)pyrazolo[5,1-b]thiazole-7-carboxamide] yielded a pIC50 [1] of 9.22 and a pIC50 [2] of 8.06.
Molecule `Cc1ncc(NC(=O)CN2C[C@H](C)O[C@@H](C)C2)cc1NC(=O)c1cnn2cc(-c3cc[nH]n3)sc12` (relative stereo) [Example 374, N-(5-(2-(trans-2,6-dimethylmorpholino)acetamido)-2-methylpyridin-3-yl)-2-(1H-pyrazol-3-yl)pyrazolo[5,1-b]thiazole-7-carboxamide] has a pIC50 [1] of 9.40 and a pIC50 [2] of 8.40.
With `Cc1ncc(NC(=O)CN2CCC[C@H]2C)cc1NC(=O)c1cnn2cc(-c3cnn(C)c3)sc12` [Example 26, (R)-2-(1-methyl-1H-pyrazol-4-yl)-N-(2-methyl-5-(2-(2-methyl-pyrrolidin-1-yl)acetamido)pyridin-3-yl)pyrazolo[5,1-b]thiazole-7-carboxamide] the pIC50 [1] was 9.10 and the pIC50 [2] was 7.93.
In the case of `Cc1ncc(NC(=O)C2CCN(C(C)C)C2)cc1NC(=O)c1cnn2cc(-c3cnn4c3OCCC4)sc12` (stereo not drawn) [Example 350, 2-(6,7-dihydro-5H-pyrazolo[5,1-b][1,3]oxazin-3-yl)-N-(5-(1-isopropylpyrrolidine-3-carboxamido)-2-methylpyridin-3-yl)pyrazolo[5,1-b]thiazole-7-carboxamide], the pIC50 [1] was 9.52 and the pIC50 [2] was 8.39.
`Cc1ncc(C(=O)NCCN2CCCC2(C)C)cc1NC(=O)c1cnn2cc(-c3cnn(Cc4cc(O)no4)c3)sc12` [Example 363, N-(5-((2-(2,2-dimethylpyrrolidin-1-yl)ethyl)carbamoyl)-2-methylpyridin-3-yl)-2-(1-((3-hydroxyisoxazol-5-yl)methyl)-1H-pyrazol-4-yl)pyrazolo[5,1-b]thiazole-7-carboxamide] was tested, and the pIC50 [1] was 8.89 and the pIC50 [2] was 7.85.
For `COc1ncccc1-c1cn2ncc(C(=O)Nc3cc(NC(=O)CN4CCC4)cnc3C)c2s1` [Example 397, N-(5-(2-(azetidin-1-yl)acetamido)-2-methylpyridin-3-yl)-2-(2-methoxypyridin-3-yl)pyrazolo[5,1-b]thiazole-7-carboxamide], the pIC50 [1] was 9.10 and the pIC50 [2] was 7.66.
`Cc1ncc(C(=O)NCCN2CCCC2(C)C)cc1NC(=O)c1cnn2cc(-c3cnn(Cc4cc(OCc5ccccc5)no4)c3)sc12` [Example 362, 2-(1-((3-(benzyloxy)isoxazol-5-yl)methyl)-1H-pyrazol-4-yl)-N-(5-((2-(2,2-dimethylpyrrolidin-1-yl)ethyl)carbamoyl)-2-methylpyridin-3-yl)pyrazolo[5,1-b]thiazole-7-carboxamide] gave a pIC50 [1] of 9.30 and a pIC50 [2] of 8.35.
`COCCn1cc(-c2cn3ncc(C(=O)Nc4cc(NC(=O)CN5CCCC5)cnc4C)c3s2)cn1` [Example 337, 2-(1-(2-methoxyethyl)-1H-pyrazol-4-yl)-N-(2-methyl-5-(2-(pyrrolidin-1-yl)acetamido)pyridin-3-yl)pyrazolo[5,1-b]thiazole-7-carboxamide] gave a pIC50 [1] of 8.74 and a pIC50 [2] of 7.34.
`Cc1ncc(NC(=O)CN2CC(C)C2)cc1NC(=O)c1cnn2cc(-c3cnn4c3OCCC4)sc12` [Example 407, 2-(6,7-dihydro-5H-pyrazolo[5,1-b][1,3]oxazin-3-yl)-N-(2-methyl-5-(2-(3-methylazetidin-1-yl)acetamido)pyridin-3-yl)pyrazolo[5,1-b]thiazole-7-carboxamide] was tested, and the pIC50 [1] was 9.52 and the pIC50 [2] was 8.21.
Molecule `COc1ncc(-c2cn3ncc(C(=O)Nc4cc(NC(=O)CN5CC(C)(C)C5)cnc4C)c3s2)c(OC)n1` [Example 392, 2-(2,4-dimethoxypyrimidin-5-yl)-N-(5-(2-(3,3-dimethylazetidin-1-yl)acetamido)-2-methylpyridin-3-yl)pyrazolo[5,1-b]thiazole-7-carboxamide] has a pIC50 [1] of 9.30 and a pIC50 [2] of 8.34.
